According to paper PMC8962293, “Synthesis, Structure, and Antiproliferative Action of 2-Pyridyl Urea-Based Cu(II) Complexes” (Biomedicines, 2022):

Assays:
MTT assay on A549 cells = type: cell-based, human; settings: human, A549 lung carcinoma cells, 72 h, read-out: Cell Viability, %; for viability at 72 h, 10 µM: A549, 10 µM; for viability at 72 h, 100 µM: A549, 100 µM
Procedure: (§1) A549, NCI-H460, NCI-H1975 lung cancer cells and WI-26 VA4 lung epithelial-like cells were purchased from the ATCC. A549 cells were maintained in F12-K (Corning, NY, USA) supplemented with 10% fetal bovine serum (Fetal Bovine Serum, qualified, Australia; Gibco, Loughborough, UK), penicillin (100 UI mL^−1), streptomycin (100 µg mL^−1), and GlutaMax (1.9 mM, Gibco, UK). NCI-H460 and NCI-H1975 cells were maintained in RPMI-1640 (ATCC modification) media (Gibco, Loughborough, UK) supplemented with 10% fetal bovine serum (Fetal Bovine Serum, qualified, Australia; Gibco, Loughborough, UK), penicillin (100 UI mL^−1), streptomycin (100 µg mL^−1), and GlutaMax (2 mM, Gibco, UK). WI-26 VA4 cells were maintained in Advanced MEM (Gibco, Loughborough, UK) supplemented with 5% fetal bovine serum (Fetal Bovine Serum, qualified, Australia, Gibco, UK), penicillin (100 UI mL^−1), streptomycin (100 µg mL^−1), and GlutaMax (1.87 mM, Gibco, Loughborough, UK). All cells line cultivation under a humidified atmosphere of 95% air/5% CO2 at 37 °C. Subconfluent monolayers, in the log growth phase, were harvested by a brief treatment with TrypLE Express solution (Gibco, Loughborough, UK) in phosphate buffered saline (PBS, Capricorn Scientific, Germany) and washed three times in serum-free PBS. The number of viable cells was determined by trypan blue exclusion.
(§2) The effects of the synthesized compounds on cell viability were determined using the MTT colorimetric test. All examined cells were diluted with the growth medium to 3.5 × 10^4 cells per mL and the aliquots (7 × 10^3 cells per 200 μL) were placed in individual wells in 96-well plates (Eppendorf, Hamburg, Germany) and incubated for 24 h. The next day, the cells were treated with synthesized compounds separately in concentration 10 and 100 μM (or 200.0 μM concentration and diluted at various concentrations for determination of IC50) and incubated for 72 h at 37 °C in 5% CO2 atmosphere. Each compound was tested in triplicate. After incubation, the cells were treated with 40 μL MTT solution (3-(4,5-dimethylthiazol-2-yl)-2,5-diphenyltetrazolium bromide, 5 mg mL^−1 in PBS) and incubated for 4 h. After additional 4-h incubation, the medium with MTT was removed and DMSO (150 μL) was added to dissolve the formazan crystals. The plates were shaken for 10 min. The optical density of each well was determined at 560 nm using GloMax Multi+ (Promega, Madison, WI, USA) microplate reader. Each of the tested compounds was evaluated for cytotoxicity in three separate experiments. All stock solutions for biological evaluations were prepared via dissolving synthesized compounds in DMSO.

[1] = tested on: A549 human lung carcinoma cells; assay: MTT assay on A549 cells; type: cell-based; settings: A549, 72 h
Procedure: as §1, §2

[2] = tested on: NCI-H460 non-small cell lung carcinoma cells; assay: MTT assay on NCI-H460 cells; type: cell-based, human; settings: NCI-H460, 72 h
Procedure: as §1, §2

[3] = tested on: EGFR-mutant NCI-H1975 non-small cell lung carcinoma cells; assay: MTT assay on NCI-H1975 cells; type: cell-based, human; settings: for IC50: NCI-H1975, 72 h, MTT
Procedure: as §1, §2

[4] = tested on: non-cancerous lung fibroblast WI-26 VA4; assay: MTT assay on WI-26 VA4 cells (non-specific cytotoxicity); type: cell-based, human; settings: WI-26 VA4, 72 h
Procedure: as §1, §2

[5] = Molar conductivity in DMSO solution; type: physicochemical; settings: DMSO solutions, 25 °C
Procedure: The preparation and characterization of starting pyridine-N-oxides as well as U1–12 are described previously. CuCl2, other reactants, and solvents were obtained from commercial sources. High-resolution mass-spectra (HRMS) were measured on Bruker Maxis HRMS-ESI-qTOF (Electrospray Ionization, ESI; Bruker, Billerica, MA, USA); a MeOH was used as the solvent. The instrument was operated at positive ion mode using m/z range of 50–3000. The capillary voltage of the ion source was set at –4500 V (ESI^+) and the capillary exit at +(70–150) V. The nebulizer gas pressure was 0.4 bar and drying gas flow was 4.0 L/min. The most intensive peak in the isotopic pattern is reported. Infrared spectra (4000–400 cm^–1) were recorded on a Shimadzu FTIR 8400S (Shimadzu, Kyoto, Japan) instrument in KBr pellets. The C, H, and N elemental analyses were carried out on a Leco TruSpec Micro CHNS analyzer (LECO, St. Joseph, MI, USA). TGA was performed on a ca. 2 mg samples of Cu(II) complexes by using a Netzsch TG 209 F1 Libra thermal analyzer (Netzsch, Selb, Germany). The samples were dried under a vacuum at 50 °C before heating from 40 to 450 °C at a heating rate of 10 K min^–1. A flow rate of 10 mL min^–1 of dry argon was used to purge the samples. Molar conductivity was measured with an Elico digital conductivity bridge model CM-88, using a freshly prepared DMSO solution of the complexes.

NCI-H1975 cells [6] = assay: Cell cycle analysis by flow cytometry; type: cell-based, human; settings: NCI-H1975, 10, 20, and 35 μM, 48 h
Procedure: For the cell cycle analysis, the cells (1 × 10^6 per well) were placed at 6-well culture plates (Eppendorf, Germany) and allowed to grow overnight. After the medium was replaced with solution tested compounds (10, 20, or 35 μM). The exposed cells were placed at 37 °C in a 5% CO2 incubator for 48 h. After the completion of incubations, cells were harvested by trypsinization, washed with PBS, centrifuged, fixed with 70% ethanol and incubated for 7 h at –20 °C. An aliquot of the pellet (200 µL) was washed with PBS, stained with 200 µL of the Guava Cell Cycle Reagent (Merck, Kenilworth, NJ, USA), and incubated for 30 min at room temperature in the dark. The cell cycle distribution was analyzed by flow cytometry on a CytoFlex (Beckham Coulter, Brea, CA, USA) and CytExpert 2.1 program.

NCI-H1975 cells [7] = assay: Annexin V-FITC/PI double staining apoptosis assay; type: cell-based, human; settings: NCI-H1975, 50 μM, 48-h incubation
Procedure: For the detection of apoptosis, the cells were placed at 6-well culture plates (Eppendorf, Germany) and allowed to grow overnight. After the cells reached subconfluency, the medium was replaced with tested compounds (25 or 50 μM). The exposed cells were placed at 37 °C in a 5% CO2 incubator for 24 or 48 h. The cultured cells were washed twice with PBS and resuspended in 1× binding buffer (AnnexinV-FITC kit, Invitrogen, Waltham, MA, USA) at a concentration 1 × 10^6 mL^−1. Annexin FITC (5 μL) and propidium iodide (PI, 2 μL) were added to 100 μL of the cell suspension and incubated for 15 min at room temperature (25 °C) in the dark. After incubation, 400 μL of 1× binding buffer was added to each tube and the stained cells were analyzed within 1 h using CytoFlex (Beckman Coulter, Brea, CA, USA) and CytExpert 2.1 program. Since the AnnexinV-FITC staining precedes the loss of membrane integrity that accompanies the later stage identified by PI, Annexin FITC positive, PI negative indicates early apoptosis, while the viable cells are Annexin V FITC negative, PI negative. The cells that are in late apoptosis or dead are both Annexin V FITC and PI positive.

| IC50 [1] | IC50 [2] | IC50 [3] | SMILES | viability at 72 h, 10 µM (MTT assay on A549 cells) | viability at 72 h, 100 µM (MTT assay on A549 cells) | IC50 [4] | further results |
| --- | --- | --- | --- | --- | --- | --- | --- |
|  |  |  | CN(C)C(=O)Nc1ccccn1 [Complex U1] | 100 ± 18% | 86.5 ± 7.5% |  |  |
|  |  |  | Cc1ccnc(NC(=O)N(C)C)c1 [Complex U2] | 102 ± 2.7% | 98.7 ± 3.8% |  |  |
|  |  |  | CN(C)C(=O)Nc1cc([N+](=O)[O-])ccn1 [Complex U3] | 95.5 ± 3.3% | 91.6 ± 4.3% |  |  |
|  |  |  | CN(C)C(=O)Nc1cc(C#N)ccn1 [Complex U4] | 94.2 ± 6.7% | 89 ± 5.1% |  |  |
|  |  |  | Cc1nc(-c2ccnc(NC(=O)N(C)C)c2)no1 [Complex U5] | 101 ± 5.5% | 90.2 ± 8.7% |  |  |
|  |  |  | Cc1nnc(-c2ccnc(NC(=O)N(C)C)c2)o1 [Complex U6] | 94.5 ± 7.1% | 89.9 ± 2.4% |  |  |
|  |  |  | O=C(Nc1ccccn1)N1CCCC1 [Complex U7] | 103 ± 2.8% | 99.8 ± 5.7% |  |  |
|  |  |  | O=C(Nc1ccccn1)N1CCCCC1 [Complex U8] | 100 ± 9.4% | 97.2 ± 6.1% |  |  |
|  |  |  | Cc1ccnc(NC(=O)N2CCCCC2)c1 [Complex U9] | 103 ± 6.3% | 98.3 ± 8.1% |  |  |
|  |  |  | COc1ccnc(NC(=O)N2CCCCC2)c1 [Complex U10] | 102 ± 5.2% | 99.5 ± 8.1% |  |  |
|  |  |  | O=C(Nc1cc([N+](=O)[O-])ccn1)N1CCCCC1 [Complex U11] | 105 ± 6.7% | 94.3 ± 9% |  |  |
|  |  |  | Cc1ccnc(NC(=O)N2CCOCC2)c1 [Complex U12] | 97.4 ± 5.5% | 85.4 ± 7.8% |  |  |
| 107 ± 15.1 µM | 120 ± 18.4 µM | 65.3 ± 10.9 µM | CN(C)C(=O)Nc1ccccn1.CN(C)C(=O)Nc1ccccn1.[Cl-].[Cl-].[Cu+2] [[Cu(U1)2Cl]^+[Cl]^−] |  |  | 108 ± 27.5 µM |  |
| 94.5 ± 14.1 µM | 122 ± 15.3 µM | 65.4 ± 8.6 µM | Cc1ccnc(NC(=O)N(C)C)c1.Cc1ccnc(NC(=O)N(C)C)c1.[Cl-].[Cl-].[Cu+2] [[Cu(U2)2Cl]^+[Cl]^−] |  |  | 101 ± 15.1 µM | Molar conductivity [5]: 24.8 Ω^−1·cm^2·mol^−1 |
| 61.4 ± 6.52 µM | 77.5 ± 6.4 µM | 39.6 ± 4.5 µM | CN(C)C(=O)Nc1cc([N+](=O)[O-])ccn1.CN(C)C(=O)Nc1cc([N+](=O)[O-])ccn1.[Cl-].[Cl-].[Cu+2] [[Cu(U3)2Cl2]] |  |  | 81.6 ± 10.1 µM | selectivity over the healthy human cells WI-26 VA4 ([3]; NCI-H1975 vs WI-26 VA4): the most selective; cells trapped in the G2 phase (NCI-H1975 cells [6]): profound increase; number of cells in the G1 phase (NCI-H1975 cells [6]): remarkable drop; percentage of dead cells (NCI-H1975 cells [7]; control 0.28%): 2.87%; percent of Annexin V FITC-positive early apoptotic cells (NCI-H1975 cells [7]; control 5.25%): 16.30%; late apoptotic fraction in cell population (NCI-H1975 cells [7]; control 12.02%): 22.38%; Molar conductivity [5]: 24.1 Ω^−1·cm^2·mol^−1 |
| 106 ± 12.2 µM | 118 ± 13.4 µM | 68.3 ± 8.5 µM | CN(C)C(=O)Nc1cc(C#N)ccn1.CN(C)C(=O)Nc1cc(C#N)ccn1.[Cl-].[Cl-].[Cu+2] [[Cu(U4)2Cl]^+[Cl]^−] |  |  | 109 ± 16.4 µM | Molar conductivity [5]: 25.2 Ω^−1·cm^2·mol^−1 |
| 114 ± 14.5 µM | 136 ± 12.5 µM | 71.2 ± 6.9 µM | Cc1nc(-c2ccnc(NC(=O)N(C)C)c2)no1.Cc1nc(-c2ccnc(NC(=O)N(C)C)c2)no1.[Cl-].[Cl-].[Cu+2] [[Cu(U5)2Cl]^+[Cl]^−] |  |  | 118 ± 24.9 µM |  |
| 88.7 ± 12.7 µM | 115 ± 26.3 µM | 63.8 ± 8.7 µM | Cc1nnc(-c2ccnc(NC(=O)N(C)C)c2)o1.Cc1nnc(-c2ccnc(NC(=O)N(C)C)c2)o1.[Cl-].[Cl-].[Cu+2] [[Cu(U6)2Cl]^+[Cl]^−] |  |  | 105 ± 14.1 µM |  |
| 102 ± 15.8 µM | 103 ± 13.1 µM | 66.7 ± 7.6 µM | O=C(Nc1ccccn1)N1CCCC1.O=C(Nc1ccccn1)N1CCCC1.[Cl-].[Cl-].[Cu+2] [[Cu(U7)2Cl]^+[Cl]^−] |  |  | 100 ± 16.6 µM |  |
| 98.4 ± 11.1 µM | 102 ± 17.3 µM | 64.4 ± 10.5 µM | O=C(Nc1ccccn1)N1CCCCC1.O=C(Nc1ccccn1)N1CCCCC1.[Cl-].[Cl-].[Cu+2] [[Cu(U8)2Cl]^+[Cl]^−] |  |  | 111 ± 19.3 µM |  |
| 46 ± 4.98 µM | 53.6 ± 4.7 µM | 33.4 ± 3.8 µM | O=C(Nc1cc([N+](=O)[O-])ccn1)N1CCCCC1.O=C(Nc1cc([N+](=O)[O-])ccn1)N1CCCCC1.[Cl-].[Cl-].[Cu+2] [[Cu(U11)2Cl2]] |  |  | 62.4 ± 5.6 µM | Molar conductivity [5]: 21.7 Ω^−1·cm^2·mol^−1 |
| 89.3 ± 6.67 µM | 128 ± 19.5 µM | 70.2 ± 4.9 µM | Cc1ccnc(NC(=O)N2CCOCC2)c1.Cc1ccnc(NC(=O)N2CCOCC2)c1.[Cl-].[Cl-].[Cu+2] [[Cu(U12)2Cl]^+[Cl]^−] |  |  | 109 ± 13.7 µM |  |

| SMILES | IC50 [1] | IC50 [2] | IC50 [3] | viability at 72 h, 10 µM (MTT assay on A549 cells) | viability at 72 h, 100 µM (MTT assay on A549 cells) | IC50 [4] | further results |
| --- | --- | --- | --- | --- | --- | --- | --- |
| Cc1ccnc(NC(=O)N2CCCCC2)c1.Cc1ccnc(NC(=O)N2CCCCC2)c1.[Cl-].[Cl-].[Cu+2] [[Cu(U9)2Cl]^+[Cl]^−] | 76.1 ± 8.86 µM | 66.4 ± 5.7 µM | 61.6 ± 6 µM |  |  | 113 ± 23.5 µM |  |
